Here are results for two molecules from patent publication US20220411879A1, “COMPOSITIONS AND METHODS FOR REGULATING EGFR AMPLIFICATION IN CANCER CELLS FOR IMPROVING EFFICACY OF EGFR-TARGETED ANTI-CANCER AGENTS” (Institute for Cancer Research d/b/a The Research Institute …, priority 2019, published 2022).

Common to all, as to format: cell-based, human
Test [1] concerns RPE cells. Nature of the test: DNA FISH for EGFR DNA copy number in RPE cells. How it is done:
The FISH protocol was performed as described previously in Black et al. (2013). Briefly, cell suspensions were fixed in ice-cold methanol:glacial acetic acid (3:1) solution for a minimum of four hours, before being spun onto 8 Chamber Polystyrene vessel tissue culture treated glass slides (Falcon, Fisher Scientific), using a centrifuge at 900 rpm. The slides were air-dried and incubated in 2×SSC buffer for 2 min, followed by serial ethanol dilution (70%, 85% and 100%) incubations for 2 min each, for a total of 6 min. Air-dried slides were hybridized with probes that were diluted in appropriate buffer overnight at 37° C., following a 4 minute incubation on a heat block at 78° C. The slides were washed the next day for 3 to 4 mins in appropriate wash buffers at 69° C. with 0.4×SSC for Cytocell probes or commercially available Agilent wash buffer 1 followed by washing in 2×SSC with 0.05% Tween-20 (Cytocell probes) or commercially available Agilent wash buffer 2 (Agilent probes). The slides were incubated in 1 mg/mL DAPI solution made in 1% BSA-PBS, followed by a final 1×PBS wash. After the wash, the slides were mounted with ProLong Gold antifade reagent (Invitrogen).
FISH images were acquired using an Olympus IX81 or Olympus IX83 spinning disk microscope at 40× magnification and analyzed using Slidebook 6.0 softwares. A minimum of 25 z-planes with 0.5 um step size was acquired for each field. Copy number gains for EGFR, 7 centromere (7C), 7p telomere (7p22.3), IKZF1 (7p12.2) and 8 centromere (8C) were scored in RPE cells as three or more foci. A minimum of 100 nuclei are scored for each independent experiment.
For hypoxia, EGF and KDM5i combinatorial experiments, RPE cells were pre-treated with 1 nM of KDM4 inhibitor exactly 24 hours prior to hypoxic exposure or EGF treatment. Immediately before transferring cells to hypoxia, or before drug or growth factor treatment, KDM4 inhibitor was supplemented to cells again at a concentration of 1 nM (double spike). Cells were then cultured in the respective conditions for 24 hours prior to harvesting for RNA, protein, cell cycle and DNA FISH analysis.
RPE cells were treated with KDM5 inhibitor (C70) at a final concentration of 1 μM for a total treatment time of 48 hours. […]

For test [2], the system named is RPE cells. Nature of the test: Trypan blue exclusion assay of EGFR inhibitor sensitivity in RPE cells. To be noted: KDM5i (1 μM) and Gefitinib (2.5 μM), 72 hours.
Experimental: Control or stable KDM4A overexpression RPE cells were plated in 24 well tissue culture plates at a density of 5×10^3. […] Cells were stained with trypan blue solution (Sigma Aldrich) to assess cell viability and counted using a haemocytometer. Each condition was plated in triplicate wells and each well was counted in duplicate. An average was taken of all triplicates and used as a representative total.
Control or stable KDM4A overexpression RPE cells were plated in 24 well tissue culture plates at a density of 8×10^3. […] Cells were stained with trypan blue solution (Sigma Aldrich) to assess cell viability and counted using a hemocytometer. Each condition was plated in triplicate wells and each well was counted in duplicate. An average was taken of all triplicates and used as a representative total.
Parental RPE cells are plated in 24 well tissue culture plates, in triplicate at a density of 5×10^3. […] Cells are cultured for a total of 72 hours under drug treatment conditions before being harvested, stained with trypan blue and counted using a haemocytometer.
Test [3] has as its system RPE cells. In words: Cell proliferation assay with EGF stimulation in RPE cells. How it is done: Control, KDM4A overexpression or wild type parental RPE cells were plated at a density of 5×10^3 per well in a 6 well tissue culture plate. Each condition was plated in triplicate for each independent experiment. Cells were allowed to adhere for 16 hours before fresh complete media was added containing a final concentration of 50 ng/ml human recombinant EGF (Abcam). For control and KDM4A overexpression RPE cells, cells were harvested after 48 hours of EGF treatment and cell number calculated using a haemocytometer. For combinatorial drug experiments using parental RPE cells, EGF was added for 24 hours, following a 24 hour drug treatment with either KDM5i (1 μM) or EZH2i (3 μM).
Parental RPE cells were plated in 24 well tissue culture plates, in triplicate at a density of 5×10^3. Cells were allowed to adhere for approximately 16 hours before media was supplemented with EZH2 inhibitor (C24) at a final concentration of 3 μM. After an initial 24 hour treatment, human recombinant EGF was supplemented to each well at a final concentration of 50 ng/ml. After 48 hours of EGF treatment, cells were harvested and counted using a haemocytometer.

A further test concerns EGFR transcripts. In words: qPCR of EGFR transcripts in RPE cells. To be noted: 50 ng/ml EGF, 24 hours. (Real-time PCR tracks product formation cycle by cycle.)
Test [4] concerns RPE cells. Nature of the test: Scratch assay (cell migration) in RPE cells. To be noted: KDM4A overexpressing RPE cells vs control, 50 ng/ml EGF, 24 hours. How it is done: Control or stable KDM4A overexpression RPE cells were plated in 6 well tissue culture plates at a density of 2×10^5. Cells were allowed to adhere to plates for 24 hours. After 24 hours in culture, a p200 pipette tip was used to introduce a scratch wound in the centre of the well from the 12 o'clock to 6 o'clock position. Following the induction of the scratch wound, media was removed from each well and 1 ml of DMEM was used to rinse the wells, removing any cellular debris. After this wash, 3 ml of DMEM supplemented with vehicle or human recombinant EGF (Abcam) to a final concentration of 50 ng/ml, was added to each well. Cells were imaged at 0 hrs, 12 hrs and 24 hrs, using the EVOS imaging platform at 4× magnification. Scratch wound measurements were performed using the EVOS software with a minimum of 5 measurements taken at various locations, per scratch wound. All measurements were averaged. Each condition was performed in triplicate for each independent experiment.

Another test has as its system KDM4A. Nature of the test: Immunoblot of KDM4A protein levels in RPE cells. To be noted: EGF 50 ng/ml, 24 hours. How it is done:
Cells were trypsinized and washed two times with PBS before resuspending in RIPA lysis buffer [50 mM Tris pH 7.4, 150 mM NaCl, 0.25% Sodium Deoxycholate, 1% NP40, 1 mM EDTA, 10% Glycerol] freshly supplemented with protease inhibitor and PhosSTOP phosphatase inhibitor cocktails (Roche). Cells were lysed on ice for 15 min and stored at −80° C. until further processing. Lysates were sonicated for 15 min (30 sec ON and 30 sec OFF cycle) at 70% amplitude in QSonica Q700 sonicator (Qsonica) followed by centrifugation at 12,000 rpm for 15 min. Cell lysate was transferred to a fresh tube and protein estimations were performed with Pierce BCA reagent (Thermo Scientific). Equal amounts of proteins were separated by SDS gel electrophoresis and transferred on nitrocellulose membrane (BioTrace NT, Pall Life Sciences) for at least 3 hr at a constant current. The membranes were blocked for at least 1 hr in 5% BSA-PBST (1×PBS with 0.5% Tween-20) or 5% milk-PBST and probed over night with specific antibodies as follows at the following dilutions: anti-GFP (Neuro mAb) (1:100); anti-β-Actin (1:10,000); anti-KDM4A (Neuro mAb) (1:100); anti-Flag (Sigma Aldrich) (1:500); anti-KDMSA (abcam) (1:500); anti-HALO (Promega) (1:1000); anti-Carbonic Anhydrase IX (Abcam) (1:1000). […]
Background: In western blotting, separated proteins are transferred to a membrane and probed.

Experimental for EGFR transcripts: Cells were washed and collected by trypsinization, followed by washing in PBS two times. Cell pellet was resuspended in Qiazol reagent (QIAGEN) and stored at −80° C. before further processing. Total RNA was extracted using miRNAeasy Mini Kit (QIAGEN) with an on-column DNase digestion according to the manufacturer's instructions. RNA was quantified using NanoDrop 2000 (Thermo Scientific). Single strand cDNA was prepared using Super Script IV first strand synthesis kit (Invitrogen) using random hexamers. Expression levels were analyzed using FastStart Universal SYBR Green Master (ROX) (Roche) according to the manufacturer's instructions on a LightCycler 480 PCR machine (Roche). Samples were normalized to β-actin.

As to `CCOC(=O)c1ccnc(CNCC(=O)N(CC)CCN(C)C)c1` [KDM5i, reference compound], the “EGFR copy gains after drug removal (washout)” value in the test on RPE cells [1] (RPE cells, KDM5i 1 μM, 24 hrs after removal) was “returned to baseline”. Moreover, the EGFR copy gains result with RPE cells [1] (RPE cells, KDM5i (C70) 1 μM) was “promoted EGFR copy gains”. Further, in the test with RPE cells [2], the “percentage of cells (trypan blue exclusion) on co-treatment with Gefitinib” value was “reduced the percentage of cells relative to controls and single agent treatment”. In addition, the “cell proliferation in response to EGF” value with RPE cells [3] (RPE cells pre-treated with KDM5i (1 μM) 24 hours, then 50 ng/ml EGF 24 hours, compared to KDM5i alone) was “increased cell proliferation with supplemented EGF”.

Consider “EGF: human recombinant EGF (Abcam), the preferred ligand of EGFR”, for which the “EGFR DNA copy number, EGF in KDM4A overexpressing cells” value in the test with RPE cells [1] (RPE cells stably overexpressing KDM4A, 50 ng/ml EGF, 24 hours) is given as “additive increases in EGFR DNA copy number”. In addition, the “EGFR copy number gains” value with RPE cells [1] (RPE cells, 50 ng/ml EGF, 24 hours) was “significant copy number gains of the EGFR locus”. For the same molecule, the “EGFR DNA copy number, EGF combined with hypoxia” value in the test with RPE cells [1] (RPE cells, hypoxia 24 hours then 50 ng/ml EGF under hypoxia 24 hours) is reported as “modest but additive increase in EGFR DNA copy number”. Also, in the test with RPE cells [3] (KDM4A overexpressing RPE cells vs control, 50 ng/ml EGF, 48 hours), the cell proliferation entry is “proliferate faster”. In addition, the “EGFR transcripts (qPCR)” value with EGFR transcripts is reported as “increased EGFR transcripts”. In the test with RPE cells [4], the “cell migration (scratch assay)” value was “migrate faster”. Moreover, the KDM4A protein levels result in the test with KDM4A is reported as “does not impact KDM4A levels”.
